One test deals with T1, GSPT1 protein (Homo sapiens, UniProt P15170+Q96SW2).
T1 construct: endogenous in cells; host or cells: HL-60 cells
The test is described as follows: GSPT1 degradation assay (western blot) in HL-60 cells. The class given is cell-based. The settings on record: GSPT1 protein level, 2h incubation, western blot normalized to beta-Actin; for inhibition at 0.1 µM: 0.1 μM compound; for inhibition at 1 µM: 1 μM compound. Here is the method: HL-60 cells (4×10^^6 cells/well) were seeded in 6-well culture plate (Costar, 3516) and treated with a variety of concentrations of test compound. After 2h incubation, cells were collected and lysed. The protein concentration was determined by BCA protein assay kit from Thermo (23227). The GSPT1 protein level was determined by western blots, using GSPT1 polyclonal antibody. Proteins were loaded into each well of the pre-casting gels and subjected to electrophoretic separation by SDS-PAGE. The protein resolved by SDS-PAGE were transferred to PVDF, blocked by 5% skim milk and probed with anti-GSPT1 antibody (Proteintech, 10763-1-AP) or anti-β-actin antibody (CST, 3700S), using following standard western blotting procedure. Blots intensities were quantified using ImageJ software and the intensity of GSPT1 bands were normalized to beta-Actin bands, respectively. The GSPT1 degradation results were then calculated. Reported compound C84971 (see WO2021126974A1 and WO2021126973A1) was used as a reference.
(A western blot detects proteins with antibodies after separation by electrophoresis.)

In another test the test system is HL-60 cells. Kind of test: Cell viability assay (CellTiter-Glo). The class given is cell-based. Conditions: Homo sapiens, 72 h incubation, 6-point serial dilution. Here is the method: HL-60 cells were seeded at a density of 7000 cells per well in 96-well culture plates (Corning 3903) with IMDM and treated with test compounds following a 6-point serial dilution. RPMI 1640 (0.1% DMSO) was used as control for each well. After 72 h incubation, cell viability was determined using the CellTiter-Glo assay kit (Promega, G9242) according to the manufacturer's instructions. The dose-response curves were determined and IC50 values were calculated using the GraphPad Prism software following a nonlinear regression method.

T1 sequence (P15170 whole entry): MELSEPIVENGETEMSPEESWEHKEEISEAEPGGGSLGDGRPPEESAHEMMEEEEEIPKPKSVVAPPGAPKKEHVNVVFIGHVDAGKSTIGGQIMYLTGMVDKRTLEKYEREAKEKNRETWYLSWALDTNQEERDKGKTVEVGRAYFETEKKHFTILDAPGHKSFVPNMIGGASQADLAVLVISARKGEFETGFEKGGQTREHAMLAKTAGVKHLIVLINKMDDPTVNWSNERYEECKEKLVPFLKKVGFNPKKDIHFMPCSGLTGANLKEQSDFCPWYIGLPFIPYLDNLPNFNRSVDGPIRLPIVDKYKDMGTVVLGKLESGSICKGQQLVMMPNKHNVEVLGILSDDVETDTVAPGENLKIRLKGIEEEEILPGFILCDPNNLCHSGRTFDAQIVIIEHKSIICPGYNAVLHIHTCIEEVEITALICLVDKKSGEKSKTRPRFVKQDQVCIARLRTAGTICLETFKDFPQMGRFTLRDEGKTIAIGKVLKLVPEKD
T1 sequence (Q96SW2 whole entry): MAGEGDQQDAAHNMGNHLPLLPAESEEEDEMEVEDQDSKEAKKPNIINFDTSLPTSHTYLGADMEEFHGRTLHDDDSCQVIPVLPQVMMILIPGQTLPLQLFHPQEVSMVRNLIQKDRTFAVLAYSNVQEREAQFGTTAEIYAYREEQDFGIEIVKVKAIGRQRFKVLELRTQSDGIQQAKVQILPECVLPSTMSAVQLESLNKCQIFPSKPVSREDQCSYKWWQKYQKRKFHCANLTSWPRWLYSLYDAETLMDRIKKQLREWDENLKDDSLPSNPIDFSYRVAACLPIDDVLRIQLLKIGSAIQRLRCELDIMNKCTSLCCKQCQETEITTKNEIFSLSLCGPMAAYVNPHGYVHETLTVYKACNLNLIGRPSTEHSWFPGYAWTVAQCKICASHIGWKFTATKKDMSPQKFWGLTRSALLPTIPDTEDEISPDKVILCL
T1 sequence (Q16531 whole entry partner): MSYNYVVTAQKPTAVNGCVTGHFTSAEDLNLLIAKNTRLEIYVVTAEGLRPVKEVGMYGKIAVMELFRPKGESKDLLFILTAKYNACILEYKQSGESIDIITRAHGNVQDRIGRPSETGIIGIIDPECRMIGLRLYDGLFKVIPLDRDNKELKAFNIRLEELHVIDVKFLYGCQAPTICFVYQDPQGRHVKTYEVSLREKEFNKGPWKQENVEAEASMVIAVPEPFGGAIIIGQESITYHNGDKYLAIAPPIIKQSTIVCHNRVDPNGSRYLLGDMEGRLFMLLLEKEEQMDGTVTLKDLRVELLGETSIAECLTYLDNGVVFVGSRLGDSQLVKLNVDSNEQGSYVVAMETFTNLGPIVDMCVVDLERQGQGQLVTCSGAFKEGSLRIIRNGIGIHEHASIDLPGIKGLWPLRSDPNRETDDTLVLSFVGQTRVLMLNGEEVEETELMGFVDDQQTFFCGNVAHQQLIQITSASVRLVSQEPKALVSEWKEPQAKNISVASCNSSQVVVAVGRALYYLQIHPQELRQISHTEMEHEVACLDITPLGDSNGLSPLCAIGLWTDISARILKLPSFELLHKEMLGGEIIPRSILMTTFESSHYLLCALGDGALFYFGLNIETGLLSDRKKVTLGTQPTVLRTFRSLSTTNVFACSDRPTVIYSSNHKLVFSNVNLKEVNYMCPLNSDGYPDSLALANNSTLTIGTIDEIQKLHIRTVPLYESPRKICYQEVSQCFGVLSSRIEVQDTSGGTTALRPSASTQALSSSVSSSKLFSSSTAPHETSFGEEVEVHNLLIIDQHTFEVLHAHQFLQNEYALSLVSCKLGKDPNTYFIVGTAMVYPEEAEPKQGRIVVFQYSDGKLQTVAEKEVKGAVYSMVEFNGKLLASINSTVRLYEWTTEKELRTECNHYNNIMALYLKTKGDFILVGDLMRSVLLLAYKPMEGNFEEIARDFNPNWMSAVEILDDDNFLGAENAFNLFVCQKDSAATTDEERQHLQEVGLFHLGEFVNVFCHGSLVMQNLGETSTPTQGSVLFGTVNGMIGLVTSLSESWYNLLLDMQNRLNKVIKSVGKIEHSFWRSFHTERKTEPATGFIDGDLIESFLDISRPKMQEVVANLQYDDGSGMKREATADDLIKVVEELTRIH

The inhibition is the relative decrease from the control value, in per cent. Broadly, the IC50 is the concentration that gives 50% inhibition. Read a low IC50 as greater potency in that assay. Turning to `CCc1c[nH]c2ccc(-c3cccc(N4CCCN(CCC5CN(c6ccc7c(c6)C(=O)N(C6CCC(=O)NC6=O)C7=O)C5)C4=O)c3)nc12` (stereo not drawn) [Compound 27, 2-(2,6-dioxopiperidin-3-yl)-5-(3-{2-[3-(3-{3-ethyl-1H-pyrrolo[3,2-b]pyridin-5-yl}phenyl)-2-oxo-1,3-diazinan-1-yl]ethyl}azetidin-1-yl)isoindole-1,3-dione], on GSPT1 protein, at 0.1 µM the inhibition was 45% and the inhibition at 1 µM came out at 70%. This molecule returned a concentration for half-maximal inhibition (IC50) in the test on HL-60 cells of 397 nM.

At GSPT1 protein, `Nc1ccc(-c2cccc(N3CCCN(CC4CCN(c5ccc6c(c5)C(=O)N(C5CCC(=O)NC5=O)C6=O)CC4)C3=O)c2)c(Cl)n1` (stereo not drawn) [Compound 28, 5-[4-({3-[3-(6-amino-2-chloropyridin-3-yl)phenyl]-2-oxo-1,3-diazinan-1-yl}methyl)piperidin-1-yl]-2-(2,6-dioxopiperidin-3-yl)isoindole-1,3-dione] gave an inhibition at 0.1 µM of 77% and an inhibition at 1 µM of 78%. Besides, the IC50 in the test with HL-60 cells is 51 nM.

At GSPT1 protein, `CCc1c(N)ccc(-c2cccc(N3CCCN(CC4CCN(c5ccc6c(c5)C(=O)N(C5CCC(=O)NC5=O)C6=O)CC4)C3=O)c2)c1Cl` (stereo not drawn) [Compound 29, 5-(4-((3-(4′-amino-2′-chloro-3′-ethyl-[1,1′-biphenyl]-3-yl)-2-oxotetrahydropyrimidin-1(2H)-yl)methyl)piperidin-1-yl)-2-(2,6-dioxopiperidin-3-yl)isoindoline-1,3-dione] returned an inhibition at 0.1 µM of 45% and an inhibition at 1 µM of 47%. The same molecule came in with an IC50 in the test on HL-60 cells of 222 nM.

On to `CCc1c[nH]c2ncc(-c3cccc(N4CCCN(CC5CCN(c6ccc7c(c6)C(=O)N(C6CCC(=O)NC6=O)C7=O)CC5)C4=O)c3)c(Cl)c12` (stereo not drawn) [Compound A, 5-(4-((3-(3-(4-chloro-3-ethyl-1H-pyrrolo[2,3-b]pyridin-5-yl)phenyl)-2-oxotetrahydropyrimidin-1(2H)-yl)methyl)piperidin-1-yl)-2-(2,6-dioxopiperidin-3-yl)isoindoline-1,3-dione], for which, at GSPT1 protein, the inhibition at 0.1 µM is 85% and the inhibition at 1 µM is above 95%. This molecule displayed an IC50 in the test on HL-60 cells of 10 nM.

For the molecule `O=C1CCC(N2C(=O)c3cc(F)c(N4CCC(CCN5CCCN(c6cccc(-c7cnc8[nH]cc(C9CC9)c8c7Cl)c6)C5=O)CC4)cc3C2=O)C(=O)N1` (stereo not drawn) [Compound B, 5-(4-(2-(3-(3-(4-chloro-3-cyclopropyl-1H-pyrrolo[2,3-b]pyridin-5-yl)phenyl)-2-oxotetrahydropyrimidin-1(2H)-yl)ethyl)piperidin-1-yl)-2-(2,6-dioxopiperidin-3-yl)-6-fluoroisoindoline-1,3-dione], at GSPT1 protein, at 0.1 µM the inhibition was 45% and the inhibition at 1 µM worked out at 75%. Moreover, half-maximal inhibition in the test on HL-60 cells (IC50) was put at 122 nM.

At GSPT1 protein, `O=C1CCC(N2Cc3ccc(N4CCNC4=O)cc3C2=O)C(=O)N1` (stereo not drawn) [Compound C84971, reference compound] showed an inhibition at 0.1 µM of 0% and an inhibition at 1 µM of 0%. The molecule also returned an IC50 with HL-60 cells above 5000 nM.

As for `CCc1c[nH]c2ncc(-c3cccc(N4CCCN(CCC5CN(c6ccc7c(c6)C(=O)N(C6CCC(=O)NC6=O)C7=O)C5)C4=O)c3)c(Cl)c12` (stereo not drawn) [Compound F, 5-(3-(2-(3-(3-(4-chloro-3-ethyl-1H-pyrrolo[2,3-b]pyridin-5-yl)phenyl)-2-oxotetrahydropyrimidin-1(2H)-yl)ethyl)azetidin-1-yl)-2-(2,6-dioxopiperidin-3-yl)isoindoline-1,3-dione], on GSPT1 protein, the inhibition at 0.1 µM is 86% and the inhibition at 1 µM was determined as 95%. The same molecule displayed a half-inhibitory concentration (IC50) in the test with HL-60 cells of 9.2 nM.
